In patent publication US4468511A, “C-20- And C-23-Modified macrolide derivatives” (Eli Lilly and Company, priority 1983, dated 1984):
≈ marks a conversion by molar mass, not a printed value. Like-named read-outs stand apart in the source and are kept apart here.

What was measured:
Format in all cases: cell-based
[1] = tested on: Staphylococcus epidermidis EPI1; assay: microbe, parasite or virus in culture; conditions: Staphylococcus epidermidis, EPI1
Protocol: (§1) The MIC's in Table II were determined by standard agar-dilution assays. The MIC's in Table III were obtained using a conventional broth-dilution microtiter test.

[2] = tested on: Staphylococcus aureus S13E; assay: microbe, parasite or virus in culture
Protocol: as §1

[3] = tested on: Staphylococcus epidermidis EPI2; assay: MIC, standard agar-dilution assay; conditions: Staphylococcus epidermidis, EPI2
Protocol: as §1

[4] = tested on: Staphylococcus aureus X400; assay: MIC, standard agar-dilution assay; conditions: Staphylococcus aureus, X400
Protocol: as §1

[5] = tested on: Escherichia coli TEM; assay: MIC, standard agar-dilution assay; conditions: Escherichia coli
Protocol: (§2) Certain of the derivatives are active against some gram-negative bacteria, such as Pasteurella species. The MIC's in Table II were determined by standard agar-dilution assays. The MIC's in Table III were obtained using a conventional broth-dilution microtiter test.

[6] = tested on: Streptococcus pyogenes 9960; assay: MIC, standard agar-dilution assay; conditions: 9960
Protocol: as §2

[7] = tested on: Streptococcus Group D X66; assay: MIC, standard agar-dilution assay
Protocol: as §2

[8] = tested on: Staphylococcus aureus X1.1; assay: MIC, standard agar-dilution assay; conditions: Staphylococcus aureus, X1.1
Protocol: as §2

[9] = tested on: Streptococcus pneumoniae Park I; assay: MIC, standard agar-dilution assay; conditions: Streptococcus pneumoniae
Protocol: as §2

[10] = tested on: Klebsiella pneumoniae KAE; assay: MIC, standard agar-dilution assay; conditions: Klebsiella pneumoniae
Protocol: as §2

[11] = tested on: Klebsiella pneumoniae X26; assay: MIC, standard agar-dilution assay; conditions: Klebsiella pneumoniae, X26
Protocol: as §2

[12] = tested on: Staphylococcus aureus V41; assay: MIC, standard agar-dilution assay; conditions: Staphylococcus aureus, V41
Protocol: as §2

[13] = tested on: Escherichia coli EC14; assay: MIC, standard agar-dilution assay; conditions: Escherichia coli, EC14
Protocol: as §2

[14] = tested on: Streptococcus pyogenes C203; assay: MIC, standard agar-dilution assay; conditions: Streptococcus pyogenes, C203
Protocol: as §2

[15] = tested on: Mycoplasma hyorhinis; assay: MIC, conventional broth-dilution microtiter test
Protocol: as §2

[16] = tested on: Pasteurella multocida 17E; assay: MIC, conventional broth-dilution microtiter test
Protocol: as §2

[17] = tested on: Pasteurella hemolytica 41D; assay: MIC, conventional broth-dilution microtiter test
Protocol: as §2

[18] = tested on: Pasteurella multocida 60A; assay: MIC, conventional broth-dilution microtiter test
Protocol: as §2

[19] = tested on: Pasteurella hemolytica 23C; assay: MIC, conventional broth-dilution microtiter test
Protocol: as §2

[20] = tested on: Mycoplasma synoviae; assay: MIC, conventional broth-dilution microtiter test; conditions: Mycoplasmopsis synoviae
Protocol: as §2

[21] = tested on: Pasteurella hemolytica 22C; assay: MIC, conventional broth-dilution microtiter test
Protocol: as §2

[22] = tested on: Pasteurella multocida 22A; assay: MIC, conventional broth-dilution microtiter test
Protocol: as §2

[23] = tested on: Mycoplasma gallisepticum 34159; assay: MIC, conventional broth-dilution microtiter test; conditions: Mycoplasmoides gallisepticum
Protocol: as §2

[24] = tested on: Streptococcus sp. 80; assay: MIC, conventional broth-dilution microtiter test
Protocol: as §2

[25] = tested on: Staphylococcus aureus; assay: MIC, conventional broth-dilution microtiter test
Protocol: as §2

[26] = tested on: Pasteurella multocida 68C; assay: MIC, conventional broth-dilution microtiter test
Protocol: as §2

[27] = tested on: Mycoplasma gallisepticum; assay: MIC, conventional broth-dilution microtiter test; conditions: Mycoplasmoides gallisepticum
Protocol: as §2

[28] = tested on: Pasteurella multocida 40G; assay: MIC, conventional broth-dilution microtiter test
Protocol: as §2

[29] = tested on: Mycoplasma gallisepticum 41313; assay: MIC, conventional broth-dilution microtiter test; conditions: Mycoplasmoides gallisepticum
Protocol: as §2

SMILES	MIC [1] [µg/mL]	MIC [2] [µg/mL]	MIC [3] [µg/mL]	MIC [4] [µg/mL]	MIC [5] [µg/mL]	MIC [6] [µg/mL]	MIC [7] [µg/mL]	MIC [8] [µg/mL]	MIC [9] [µg/mL]	MIC [10] [µg/mL]	MIC [11] [µg/mL]	MIC [12] [µg/mL]	MIC [13] [µg/mL]	MIC [14] [µg/mL]	MIC ([15]; Mycoplasma) [µg/mL]	MIC ([16]; Pasteurella multocida, 17E) [µg/mL]	MIC ([17]; Pasteurella, 41D) [µg/mL]	MIC ([18]; Pasteurella multocida, 60A) [µg/mL]	MIC ([19]; Pasteurella, 23C) [µg/mL]	MIC [20] [µg/mL]	other results
CCC1OC(=O)CC(O)C(C)C(OC2OC(C)C(OC(C)=O)C(N(C)C)C2OC(C)=O)C(CCOC(=O)Cc2ccccc2)CC(C)C(=O)C=CC(C)=CC1CO (stereo not shown) [Compound 54, 2',4'-Di-O-acetyl-20-O-phenylacetyl-20-dihydro-OMT]	2 (≈ 2.49 µM)	2 (≈ 2.49 µM)	2 (≈ 2.49 µM)	2 (≈ 2.49 µM)	16 (≈ 20 µM)	4 (≈ 4.99 µM)	4 (≈ 4.99 µM)	2 (≈ 2.49 µM)	0.5 (≈ 0.623 µM)	> 128	4 (≈ 4.99 µM)	2 (≈ 2.49 µM)	> 128	1 (≈ 1.25 µM)	50 (≈ 62.3 µM)	12.5 (≈ 15.6 µM)	12.5 (≈ 15.6 µM)	6.25 (≈ 7.79 µM)	12.5 (≈ 15.6 µM)	25 (≈ 31.2 µM)	MIC ([21]; Pasteurella, 22C): 12.5 µg/mL (≈ 15.6 µM); MIC ([22]; Pasteurella multocida, 22A): 25 µg/mL (≈ 31.2 µM); MIC [23]; 34159: 3.12 µg/mL (≈ 3.89 µM); MIC ([24]; Streptococcus, SP.80): 3.12 µg/mL (≈ 3.89 µM); MIC [25]: 0.78 µg/mL (≈ 0.973 µM); MIC ([26]; Pasteurella multocida, 68C): 6.25 µg/mL (≈ 7.79 µM); MIC [27]: 0.048 µg/mL (≈ 0.0599 µM); MIC ([28]; Pasteurella multocida, 40G): 25 µg/mL (≈ 31.2 µM); MIC [29]; 41313: 0.78 µg/mL (≈ 0.973 µM)
CCC1OC(=O)CC(O)C(C)C(OC2OC(C)C(OC(C)=O)C(N(C)C)C2OC(C)=O)C(CCOC(=O)Cc2ccccc2)CC(C)C(=O)C=CC(C)=CC1COC(=O)Cc1ccccc1 (stereo not shown) [Compound 55, 2',4'-di-O-acetyl-20,23-di-O-phenylacetyl-20-dihydro-OMT]	4 (≈ 4.35 µM)	4 (≈ 4.35 µM)	2 (≈ 2.17 µM)	8 (≈ 8.69 µM)	> 128	8 (≈ 8.69 µM)	8 (≈ 8.69 µM)	8 (≈ 8.69 µM)	1 (≈ 1.09 µM)	> 128	> 128	8 (≈ 8.69 µM)	> 128	2 (≈ 2.17 µM)	50 (≈ 54.3 µM)	> 50	> 50	50 (≈ 54.3 µM)	> 50	6.25 (≈ 6.79 µM)	MIC ([21]; Pasteurella, 22C): > 50 µg/mL; MIC ([22]; Pasteurella multocida, 22A): > 50 µg/mL; MIC [23]; 34159: 3.12 µg/mL (≈ 3.39 µM); MIC ([24]; Streptococcus, SP.80): 1.56 µg/mL (≈ 1.7 µM); MIC [25]: 0.78 µg/mL (≈ 0.848 µM); MIC ([26]; Pasteurella multocida, 68C): > 50 µg/mL; MIC [27]: 0.097 µg/mL (≈ 0.105 µM); MIC ([28]; Pasteurella multocida, 40G): > 50 µg/mL; MIC [29]; 41313: 0.78 µg/mL (≈ 0.848 µM)
CCC1CC(C)C(=O)C=CC(C)=CC(CN2CCCCCCC2)C(CC)OC(=O)CC(O)C(C)C1OC1OC(C)C(OC(C)=O)C(N(C)C)C1OC(C)=O (stereo not shown) [Compound 57]	–	–	–	–	–	–	–	–	–	–	–	–	–	–	–	–	–	–	–	12.5 (≈ 16.4 µM)	MIC ([15]; broth-dilution microtiter, Mycoplasma hyorhinis, read-out: MIC): > 50 µg/mL; MIC ([16]; broth-dilution microtiter, Pasteurella multocida 17E, Bovine isolate, read-out: MIC): 1.56 µg/mL (≈ 2.04 µM); MIC ([17]; broth-dilution microtiter, Pasteurella hemolytica 41D, read-out: MIC): 0.78 µg/mL (≈ 1.02 µM); MIC ([18]; broth-dilution microtiter, Pasteurella multocida 60A, Avian isolate, read-out: MIC): 1.56 µg/mL (≈ 2.04 µM); MIC ([19]; broth-dilution microtiter, Pasteurella hemolytica 23C, read-out: MIC): 1.56 µg/mL (≈ 2.04 µM); MIC ([21]; broth-dilution microtiter, Pasteurella hemolytica 22C, read-out: MIC): 0.78 µg/mL (≈ 1.02 µM); MIC ([22]; broth-dilution microtiter, Pasteurella multocida 22A, read-out: MIC): 1.56 µg/mL (≈ 2.04 µM); MIC ([23]; broth-dilution microtiter, Mycoplasma gallisepticum 34159, Resistant strain, read-out: MIC): 50 µg/mL (≈ 65.5 µM); MIC ([24]; broth-dilution microtiter, Streptococcus sp. 80, read-out: MIC): 0.195 µg/mL (≈ 0.256 µM); MIC ([25]; broth-dilution microtiter, read-out: MIC): 0.39 µg/mL (≈ 0.511 µM); MIC ([26]; broth-dilution microtiter, Pasteurella multocida 68C, read-out: MIC): 0.78 µg/mL (≈ 1.02 µM); MIC ([27]; broth-dilution microtiter, Mycoplasma gallisepticum, read-out: MIC): 0.78 µg/mL (≈ 1.02 µM); MIC ([28]; broth-dilution microtiter, Pasteurella multocida 40G, read-out: MIC): 1.56 µg/mL (≈ 2.04 µM); MIC ([29]; broth-dilution microtiter, Mycoplasma gallisepticum 41313, Resistant strain, read-out: MIC): 50 µg/mL (≈ 65.5 µM)
